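The compound was tested at five concentrations on cells cultured in 96-well plates, with a 48-hour exposure period. GI50 marks 50% less growth.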 Active and inactive are the calls of the source. Rule as the data show it: active = GI50 up to about 1.1 µM and inactive = higher.
Assays:
Test in all cases: growth of human tumour cells (NCI), 48 h
A549 = system: A549
CCRF-CEM = system: CCRF-CEM
HCC 2998 = system: HCC 2998
HCT-15 = system: HCT-15
HOP-62 = system: HOP-62
HT-29 = system: HT-29
IGROV-1 = system: IGROV-1
KM12 = system: KM12
MCF7 = system: MCF7
MOLT-4 = system: MOLT-4
Malme-3M = system: Malme-3M
NCI-H226 = system: NCI-H226
NCI-H522 = system: NCI-H522
NCI/ADR-RES = system: NCI/ADR-RES
OVCAR-4 = system: OVCAR-4
OVCAR-5 = system: OVCAR-5
SF-268 = system: SF-268
SK-OV-3 = system: SK-OV-3
SNB-75 = system: SNB-75
SR = system: SR

Row | SMILES | GI50 (A549) | GI50 (CCRF-CEM) | GI50 (HCC 2998) | GI50 (HCT-15) | GI50 (HOP-62) | GI50 (HT-29) | GI50 (IGROV-1) | GI50 (KM12) | GI50 (MCF7) | GI50 (MOLT-4) | GI50 (Malme-3M) | GI50 (NCI-H226) | GI50 (NCI-H522) | GI50 (NCI/ADR-RES) | GI50 (OVCAR-4) | GI50 (OVCAR-5) | GI50 (SF-268) | GI50 (SK-OV-3) | GI50 (SNB-75) | GI50 (SR)
1 | CN(C)CCCNc1ccc2nnn3c4ccc(O)cc4c(=O)c1c23 | 0.358 µM (active) | 1.28 µM (inactive) | 1.89 µM (inactive) | 2.85 µM | 3.27 µM (inactive) | 2.74 µM (inactive) | 1.92 µM (inactive) | 1.68 µM (inactive) | 5.7 µM (inactive) | 0.2 µM (active) | 10.3 µM (inactive) | 2.51 µM (inactive) | 3.7 µM (inactive) | 4.56 µM (inactive) | 4.54 µM (inactive) | 9.98 µM (inactive) | 2.88 µM (inactive) | 5.6 µM (inactive) | 3.37 µM (inactive) | 0.193 µM (active)
2 | CC(C)NC(=O)OCc1c(COC(=O)NC(C)C)c(-c2cc[n+](COC(=O)Cc3ccccc3)cc2)n2c1CCC2 | > 100 µM (inactive) | 38.5 µM (inactive) | > 100 µM (inactive) | > 100 µM | 72.9 µM (inactive) | > 100 µM (inactive) | > 100 µM (inactive) | > 100 µM (inactive) | 67.5 µM (inactive) | 47.8 µM (inactive) | > 100 µM (inactive) | > 100 µM (inactive) | > 100 µM (inactive) | > 100 µM (inactive) | > 100 µM (inactive) | > 100 µM (inactive) | 55.1 µM (inactive) | > 100 µM (inactive) | 54.6 µM (inactive) | 9.59 µM (inactive)
